# In patent US20250176550A1, “HERBICIDE COMPOSITION OF URACIL COMPOUND CONTAINING CARBOXYLATE FRAGMENT AND THE USE THEREOF” (Jiangsu Flag Chemical Industry Co., Ltd., priority 2022, published 2025):
# Columns and labels:
# Test in all cases: Indoor virulence and combined effect, greenhouse pot test, post-emergence stem and leaf spray, fresh weight inhibition
# Assay type in all cases: in vivo
# eleusine indica = system: eleusine indica
# Method: (§1) The active ingredients A and B are respectively screened and an indoor combined effect of the composition on weeds was evaluated by an indoor test and a field test, to determine a combined effect of the composition on weeds.
# (§2) Quantitative seeds of Poaceae weeds (echinochloa crusgalli, Digitaria sanguinalis, setaria viridis, Eleusine indica, avena fatua, alopecurus japonicus, alopecurus aequalis, Lolium multiflorum) and broadleaf weeds (eclipta prostrata, rorippa dubia, Abutilon theophrasti, conyza canadensis, veronica persica, myosoton aquaticum, polygonum lapathifolium, galium aparine var. tenerum, alisma plantago-aquatica, geranium carolinianum) were sown in paper cup containing nutrient soil with a diameter of 7 cm, covered with soil for 1 cm after sowing. After pressing and watering, they were cultured in a greenhouse according to a conventional method. Poaceae weeds grew to 3˜4 leaf stage, broad-leaved weeds grew to 4˜6 leaf stage, spraying treatment to both stem and leaf was performed; and pre-seedling soil spray treatment was performed 24 hours after sowing. Following an experimental design dosage, a WP-2000 walking spray tower (spindle speed 96 mm/r, spray height 200 mm, effective spray amplitude of nozzle 350 mm, nozzle flow rate 390 mL/min, nozzle walking speed 210 mm/s) was used for the spray treatment. The experiment was repeated three times. After being treated, a sample material is placed in an operation hall, and after the drug solution is naturally dried out, the sample material is placed in a greenhouse and managed according to the conventional method. A reaction of weeds to the drug agent is observed and recorded, and a regularly visual check of a control effect of the drug agent on weeds was performed after the treatment.
# (§3) All of original drugs were using acetone as a solvent, being diluted with 0.1 wt % emulsifier of Tween-80 aqueous solution, and being diluted right before using.
# (§4) When determining a ratio or content of the active ingredient A and the active ingredient B, it should be measured from characteristics of action of both agents and virulence thereof, as well as the main purpose of use of a formula shall also be considered in. In the present study, on a basis of previous pre-test, the dosages of the active ingredient A and the active ingredient B were set, when being used alone and mixed, as shown in the following table. Water containing no agent, but containing the same solvent and emulsifier was used as a blank control.
# (§5) Repeat 4 times for each treatment, 3 pots per treatment each time and 30 weed seeds were sown for each pot.
# (§6) Adopting an absolute number survey method, using a blade to cut the whole seedling of surviving weed along soil surface, and weighting the fresh weight of the weed with an analytical balance. For weeds that had died, counting the fresh weight as zero.
# (§7) Survey period and frequency: 21 days after the treatment, total 1 investigation.
# (§8) The theoretical fresh weight inhibition rate (E0-Expected Efficacy=[…]) of each treatment combination was calculated by Gowing method, and then compared with the measured inhibition rate (E-Observed Efficacy) to evaluate the combined effect type of both on weeds. When E-E0 value was greater than 10%, it was counted as a synergistic effect, less than −10%, it was counted as an antagonistic effect, and between −10%˜10%, it was counted as an additive effect. According to a plurality of factors including an actual control efficacy, a herbicide characteristic, a formula balance and other factors to determine the best ratio. In the formula, X is the fresh weight inhibition rate of the ingredient A at a dosage of P; Y is the fresh weight inhibition rate of the active ingredient B at a dosage of Q.
# (§9) The statistical results are shown in Table 1 to Table 44 below, except for those marked clearly as “pre-emergence treatment”, all others are “post-emergence treatment”. […]
# echinochloa crusgalli = details: for Fresh weight suppression rate %, B single dose: Table 22
# Method: as §1
# as §2, with “Following an experimental design dosage, a WP-2000 walking spray tower (spindle speed 96 mm/r, spray height 200 mm, effective spray amplitude of nozzle 350 mm, nozzle flow rate 390 mL/min, nozzle walking speed 210 mm/s) was used for the spray treatment.” left out, “method.” for “method. A reaction of weeds to the drug agent is observed and recorded, and a regularly visual check of a control effect of the drug agent on weeds was performed after the treatment.”
# as §3, §4, §5, §6, §7
# When E-E0 value was greater than 10%, it was counted as a synergistic effect, less than −10%, it was counted as an antagonistic effect, and between −10%˜10%, it was counted as an additive effect. […] In the formula, X is the fresh weight inhibition rate of the ingredient A at a dosage of P; Y is the fresh weight inhibition rate of the active ingredient B at a dosage of Q.
# digitaria sanguinalis = details: for Fresh weight suppression rate %, B single agent: Table 14
# Method: as §1, §2, §3, §4, §5, §6, §7, §8, §9
compound,measurement,setting,value
CCOC(=O)C1(C)CC(c2cc(-n3c(=O)cc(C(F)(F)F)n(C)c3=O)c(F)cc2Cl)=NO1 (centres unmarked) [SY-1604],"Fresh weight inhibition rate %, B single agent","eleusine indica; Table 33, B 7.5 g a.i./ha",47.10%
same,"Fresh weight inhibition rate %, B single agent","eleusine indica; Table 33, B 12.5 g a.i./ha",48.33%
same,"Fresh weight inhibition rate %, B single agent","eleusine indica; Table 33, B 20 g a.i./ha",64.09%
same,"Fresh weight inhibition rate %, B single agent","eleusine indica; Table 33, B 30 g a.i./ha",72.50%
same,"Fresh weight inhibition rate %, B single agent","eleusine indica; Table 33, B 40 g a.i./ha",74.06%
COP(=S)(OC)SCC(=O)N(c1ccc(Cl)cc1)C(C)(C)C [anilofos],"Fresh weight suppression rate %, B single dose",echinochloa crusgalli; B 60 g a.i./ha,37.41%
same,"Fresh weight suppression rate %, B single dose",echinochloa crusgalli; B 80 g a.i./ha,41.96%
same,"Fresh weight suppression rate %, B single dose",echinochloa crusgalli; B 105 g a.i./ha,46.85%
same,"Fresh weight suppression rate %, B single dose",echinochloa crusgalli; B 120 g a.i./ha,64.69%
COc1cc(OC)nc(Oc2cccc(Oc3nc(OC)cc(OC)n3)c2C(=O)O)n1 [bispyribac-sodium],inhibition at 5 g/ha,"echinochloa crusgalli; Echinochloa crus-galli, 504 h, Table 4, 5 g a.i./ha, post-emergence, 21 days after treatment, read-out: Fresh weight inhibition rate %, B single agent",14.3%
same,inhibition at 10 g/ha,"echinochloa crusgalli; Echinochloa crus-galli, 504 h, Table 4, 10 g a.i./ha, post-emergence, 21 days after treatment, read-out: Fresh weight inhibition rate %, B single agent",21.9%
same,inhibition at 25 g/ha,"echinochloa crusgalli; Echinochloa crus-galli, 504 h, Table 4, 25 g a.i./ha, post-emergence, 21 days after treatment, read-out: Fresh weight inhibition rate %, B single agent",30.1%
CCOC(=O)COc1ncccc1Oc1cc(-n2c(=O)cc(C(F)(F)F)n(C)c2=O)c(F)cc1Cl [epyrifenacil],"Fresh weight inhibition rate %, B single agent","eleusine indica; Table 35, B 5 g a.i./ha",38.04%
same,"Fresh weight inhibition rate %, B single agent","eleusine indica; Table 35, B 10 g a.i./ha",32.92%
same,"Fresh weight inhibition rate %, B single agent","eleusine indica; Table 35, B 15 g a.i./ha",37.91%
same,"Fresh weight inhibition rate %, B single agent","eleusine indica; Table 35, B 20 g a.i./ha",51.59%
C[C@@H](Oc1nc(F)c(Cl)c(N)c1Cl)C(=O)OCC1CCCO1 (some centres unmarked) [fluchloraminopyr-tefuryl],"Fresh weight inhibition rate %, B single agent","digitaria sanguinalis; Table 41, B 50 g a.i./ha",47.40%
same,"Fresh weight inhibition rate %, B single agent","digitaria sanguinalis; Table 41, B 80 g a.i./ha",66.49%
same,"Fresh weight inhibition rate %, B single agent","digitaria sanguinalis; Table 41, B 120 g a.i./ha",74.76%
same,"Fresh weight inhibition rate %, B single agent","digitaria sanguinalis; Table 41, B 150 g a.i./ha",79.70%
COC(=O)[C@@H](C)O/N=C/c1cc(-n2c(=O)cc(C(F)(F)F)n(C)c2=O)c(F)cc1Cl [flufenoximacil],"Fresh weight inhibition rate %, B single agent","eleusine indica; Table 36, B 5 g a.i./ha",34.41%
same,"Fresh weight inhibition rate %, B single agent","eleusine indica; Table 36, B 10 g a.i./ha",51.91%
same,"Fresh weight inhibition rate %, B single agent","eleusine indica; Table 36, B 15 g a.i./ha (row 5 + 15)",55.99%
same,"Fresh weight inhibition rate %, B single agent","eleusine indica; Table 36, B 15 g a.i./ha (row 15 + 15)",55.99%
same,"Fresh weight inhibition rate %, B single agent","eleusine indica; Table 36, B 20 g a.i./ha",59.18%
CCC[S+]([O-])c1c(C(F)(F)F)ccc(C(=O)Nc2nnc(C)o2)c1F (centres unmarked) [flusulfinam],"Fresh weight suppression rate %, B single agent",digitaria sanguinalis; B 15 g a.i./ha,34.84%
same,"Fresh weight suppression rate %, B single agent",digitaria sanguinalis; B 30 g a.i./ha,36.52%
same,"Fresh weight suppression rate %, B single agent",digitaria sanguinalis; B 37.5 g a.i./ha,40.37%
same,"Fresh weight suppression rate %, B single agent",digitaria sanguinalis; B 45 g a.i./ha,50.75%
CC(C)N.O=C(O)CNCP(=O)(O)O [glyphosate-isopropylammonium],"Fresh weight inhibition rate %, B single agent","eleusine indica; Table 18, B 160 g a.i./ha",27.36%
same,"Fresh weight inhibition rate %, B single agent","eleusine indica; Table 18, B 240 g a.i./ha",32.37%
same,"Fresh weight inhibition rate %, B single agent","eleusine indica; Table 18, B 350 g a.i./ha",35.52%
same,"Fresh weight inhibition rate %, B single agent","eleusine indica; Table 18, B 500 g a.i./ha",45.72%
CS(=O)(=O)c1cc(C(F)(F)F)ccc1C(=O)c1cnoc1C1CC1 [isoxaflutole],"Fresh weight inhibition rate %, B single agent","digitaria sanguinalis; Table 16, B 40 g a.i./ha",56.12%
same,"Fresh weight inhibition rate %, B single agent","digitaria sanguinalis; Table 16, B 50 g a.i./ha",71.94%
same,"Fresh weight inhibition rate %, B single agent","digitaria sanguinalis; Table 16, B 60 g a.i./ha",73.13%
same,"Fresh weight inhibition rate %, B single agent","digitaria sanguinalis; Table 16, B 70 g a.i./ha",76.72%
CS(=O)(=O)c1ccc(C(=O)C2C(=O)CCCC2=O)c([N+](=O)[O-])c1 [mesotrione],"Fresh weight inhibition rate %, B single agent","digitaria sanguinalis; Table 13, B 90 g a.i./ha",45.39%
same,"Fresh weight inhibition rate %, B single agent","digitaria sanguinalis; Table 13, B 105 g a.i./ha",56.62%
same,"Fresh weight inhibition rate %, B single agent","digitaria sanguinalis; Table 13, B 120 g a.i./ha",58.12%
C[C@@H](Oc1ccc(Oc2nc3ccc(Cl)cc3o2)cc1)C(=O)N(C)c1ccccc1F [metamifop],"Fresh weight inhibition rate %, B single agent","digitaria sanguinalis; Table 29, B 15 g a.i./ha",49.80%
same,"Fresh weight inhibition rate %, B single agent","digitaria sanguinalis; Table 29, B 25 g a.i./ha",55.48%
same,"Fresh weight inhibition rate %, B single agent","digitaria sanguinalis; Table 29, B 40 g a.i./ha",58.52%
same,"Fresh weight inhibition rate %, B single agent","digitaria sanguinalis; Table 29, B 60 g a.i./ha",60.50%
COc1cc(OC)nc(NC(=O)NS(=O)(=O)c2ncccc2C(=O)N(C)C)n1 [nicosulfuron],inhibition at 12.5 g/ha,"digitaria sanguinalis; Digitaria sanguinalis, 504 h, Table 1, 12.5 g a.i./ha, post-emergence, 21 days after treatment, read-out: Fresh weight inhibition rate %, B single agent",10.2%
same,inhibition at 20 g/ha,"digitaria sanguinalis; Digitaria sanguinalis, 504 h, Table 1, 20 g a.i./ha, post-emergence, 21 days after treatment, read-out: Fresh weight inhibition rate %, B single agent",23.4%
same,inhibition at 25 g/ha,"digitaria sanguinalis; Digitaria sanguinalis, 504 h, Table 1, 25 g a.i./ha, post-emergence, 21 days after treatment, read-out: Fresh weight inhibition rate %, B single agent",34.9%
same,inhibition at 30 g/ha,"digitaria sanguinalis; Digitaria sanguinalis, 504 h, Table 1, 30 g a.i./ha, post-emergence, 21 days after treatment, read-out: Fresh weight inhibition rate %, B single agent",39.1%
CC(C)N(C)S(=O)(=O)NC(=O)c1cc(-n2c(=O)cc(C(F)(F)F)n(C)c2=O)c(F)cc1Cl [saflufenacil],"Fresh weight inhibition rate %, B single agent","eleusine indica; Table 30, B 7.5 g a.i./ha",23.20%
same,"Fresh weight inhibition rate %, B single agent","eleusine indica; Table 30, B 12.5 g a.i./ha",39.66%
same,"Fresh weight inhibition rate %, B single agent","eleusine indica; Table 30, B 20 g a.i./ha",50.62%
same,"Fresh weight inhibition rate %, B single agent","eleusine indica; Table 30, B 30 g a.i./ha",58.13%
same,"Fresh weight inhibition rate %, B single agent","eleusine indica; Table 30, B 40 g a.i./ha",50.09%
Cc1nn(-c2cc(NS(C)(=O)=O)c(Cl)cc2Cl)c(=O)n1C(F)F [sulfentrazone],"Fresh weight inhibition rate %, B single agent","eleusine indica; Table 32, B 75 g a.i./ha",8.30%
same,"Fresh weight inhibition rate %, B single agent","eleusine indica; Table 32, B 120 g a.i./ha",18.12%
same,"Fresh weight inhibition rate %, B single agent","eleusine indica; Table 32, B 150 g a.i./ha",23.53%
Cc1c(C(=O)c2cnn(C)c2O)ccc(S(C)(=O)=O)c1C1=NOCC1 [topramezone],"Fresh weight inhibition rate %, B single agent","digitaria sanguinalis; Table 15, B 7.5 g a.i./ha",3.85%
same,"Fresh weight inhibition rate %, B single agent","digitaria sanguinalis; Table 15, B 10 g a.i./ha",17.09%
same,"Fresh weight inhibition rate %, B single agent","digitaria sanguinalis; Table 15, B 12.5 g a.i./ha",19.6%
oxadiargyl,"Fresh weight inhibition rate %, B single agent","digitaria sanguinalis; Table 31, B 12.5 g a.i./ha",38.31%
same,"Fresh weight inhibition rate %, B single agent","digitaria sanguinalis; Table 31, B 20 g a.i./ha",42.31%
same,"Fresh weight inhibition rate %, B single agent","digitaria sanguinalis; Table 31, B 30 g a.i./ha",52.31%
